Results reported in article PMC10584170, “Machine learning-based phenotypic imaging to characterise the targetable biology of Plasmodium falciparum male gametocytes for the development of transmission-blocking antimalarials” (PLOS Pathogens, 2023).
Where two headings read alike, the source gives them in different places.

What was measured:
[1] = tested on: P. falciparum female gametocytes; assay: P. falciparum Dual Gamete Formation Assay (PfDGFA), female readout (Pfs25-positive female gametes); type: cell-based, Plasmodium falciparum NF54
Summary of the method: (§1)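 Read-outs are automated image counts of exflagellation centres (brightfield, 10 frames over 1 s) and Pfs25-positive female gametes (Cy3 fluorescence).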

[2] = tested on: P. falciparum male gametocytes; assay: P. falciparum Dual Gamete Formation Assay (PfDGFA), male readout (exflagellation); type: cell-based, Plasmodium falciparum NF54; conditions: for Activity: hit = >50% inhibition in male or female readout in at least 3 replicates, 0 = no class assigned
Summary of the method: as §1

[3] = PfDGFA at 2µM, 24h preincubation with gametocytes, average of replicates
[4] = PfDGFA at 2µM, 24h preincubation with gametocytes, replicate R1
[5] = PfDGFA at 2µM, 24h preincubation with gametocytes, replicate R3
[6] = PfDGFA at 2µM, 24h preincubation with gametocytes, replicate R4
[7] = number of replicates with >50% inhibition in the female readout, 2µM
[8] = number of replicates with >50% inhibition in the male readout, 2µM
[9] = 2µM, 24h preincubation with gametocytes prior to induction of gametogenesis, average of replicates
[10] = 2µM, 24h preincubation with gametocytes prior to induction of gametogenesis, replicate R1
[11] = 2µM, 24h preincubation with gametocytes prior to induction of gametogenesis, replicate R3
[12] = 2µM, 24h preincubation with gametocytes prior to induction of gametogenesis, replicate R4
[13] = 2µM, 24h preincubation, hits selected on >50% inhibition in the female readout across replicates
[14] = 2µM, 24h preincubation, hits selected on >50% inhibition in the male readout across replicates
[15] = PfDGFA at 2µM, 24h preincubation
[16] = PfDGFA at 2µM, 24h preincubation with gametocytes prior to induction of gametogenesis, replicate R1
[17] = PfDGFA at 2µM, 24h preincubation with gametocytes prior to induction of gametogenesis, replicate R3
[18] = PfDGFA at 2µM, 24h preincubation with gametocytes prior to induction of gametogenesis, replicate R4
[19] = PfDGFA at 2µM, 24h preincubation, average of replicates
[20] = 2µM, 24h preincubation, number of replicates with >50% inhibition in the female readout
[21] = 2µM, 24h preincubation, number of replicates with >50% inhibition in the male readout

| SMILES | Average inhibition female (%) [1, 9] [%] | % inhibition female (individual replicates) R1 [1, 10] [%] | % inhibition female (individual replicates) R3 [1, 11] [%] | % inhibition female (individual replicates) R4 [1, 12] [%] | HitlevelF [1, 13] | Average inhibition male (%) [2, 9] [%] | % inhibition male (individual replicates) R1 [2, 10] [%] | % inhibition male (individual replicates) R3 [2, 11] [%] | % inhibition male (individual replicates) R4 [2, 12] [%] | HitlevelM [2, 14] | Activity [2, 15] | other results |
| --- | --- | --- | --- | --- | --- | --- | --- | --- | --- | --- | --- | --- |
| CN(C)CCNCc1ccc(-c2ccc3c(Nc4ccc(Oc5ccccc5)cc4)ccnc3c2)o1 [TCMDC-138399] |  |  |  |  |  |  |  |  |  |  |  | Average inhibition female (%) [1, 3]: 26.2%; % inhibition female (individual replicates) R1 [1, 4]: 29.8%; % inhibition female (individual replicates) R3 [1, 5]: 23.6%; % inhibition female (individual replicates) R4 [1, 6]: 16.9%; HitlevelF [1, 7]: 0; Average inhibition male (%) [2, 3]: 74.5%; % inhibition male (individual replicates) R1 [2, 4]: 82.1%; % inhibition male (individual replicates) R3 [2, 5]: 51.0%; % inhibition male (individual replicates) R4 [2, 6]: 85.6%; HitlevelM [2, 8]: 4 |
| CN1CCN(Cc2nc(-c3ccc4c(Nc5ccc(Oc6ccccc6)cc5)ccnc4c3)cs2)CC1 [TCMDC-138409] | 17.5 | 9.4 | 19.5 | 18.6 | 0 | 49.4 | 33.1 | 19.5 | 56.9 | 2 | 0 |  |
| CN1CCN(Cc2nc(-c3ccc4c(Nc5ccc(F)c(O)c5)ccnc4c3)cs2)CC1 [TCMDC-138439] | 3.7 | 13.1 | -10.3 | 4.9 | 0 | 3.8 | -1.6 | 1.0 | 20.9 | 0 | 0 |  |
| CS(=O)(=O)CCNCc1ccc(-c2ccc3c(Nc4ccc(Cl)cc4F)ccnc3c2)o1 [TCMDC-138445] |  |  |  |  |  |  |  |  |  |  |  | % inhibition female (individual replicates) R1 [1, 16]: 4.7%; % inhibition female (individual replicates) R3 [1, 17]: -15.0%; % inhibition female (individual replicates) R4 [1, 18]: 12.7%; Average inhibition female (%) [1, 19]: -1.7%; % inhibition male (individual replicates) R1 [2, 16]: -15.4%; % inhibition male (individual replicates) R3 [2, 17]: 14.3%; % inhibition male (individual replicates) R4 [2, 18]: -10.6%; Average inhibition male (%) [2, 19]: -2.9% |
| CN(C)CCN(C)Cc1ccc(-c2ccc3c(Nc4ccc(F)cc4Cl)ccnc3c2)o1 [TCMDC-138447] | 19.6 | 22.4 | -11.7 | 48.1 |  | 33.6 | 23.0 | -2.6 | 53.6 |  |  | HitlevelF [1, 20]: 0; HitlevelM [2, 21]: 2 |
| c1ccc(Oc2ccc(Nc3ccnc4cc(-c5cccc(CNCCN6CCOCC6)c5)ccc34)cc2)cc1 [TCMDC-138474] | 29.1 | 38.4 | 13.4 | 18.2 |  | 19.3 | 25.4 | -12.1 | 25.6 |  |  | HitlevelF [1, 20]: 0; HitlevelM [2, 21]: 0 |
| CN1CCN(Cc2cccc(-c3ccc4c(Nc5ccc(Oc6ccccc6)cc5)ccnc4c3)c2)CC1 [TCMDC-138476] | 18.5 | 35.6 | -5.5 | 24.1 |  | -8.7 | -12.6 | -7.4 | -11.7 |  |  | HitlevelF [1, 20]: 0; HitlevelM [2, 21]: 0 |
| O=C(Cc1cccc(O)c1)NCC(Cc1ccc(O)cc1)c1ccccc1 (stereo not shown) [TCMDC-138482] |  |  |  |  |  |  |  |  |  |  |  | Selectivity ratio F ([1]; HepG2 Tox50 versus female IC50): 10; inhibition at 2 µM ([1]; Plasmodium falciparum, 2µM, 24h preincubation with gametocytes, average of replicates, read-out: Average inhibition female (%)): 28.1%; inhibition at 2 µM ([1]; Plasmodium falciparum, 2µM, 24h preincubation with gametocytes, replicate R1, read-out: % inhibition female (individual replicates) R1): 32.7%; inhibition at 2 µM ([1]; Plasmodium falciparum, 2µM, 24h preincubation with gametocytes, replicate R2, read-out: % inhibition female (individual replicates) R2): 38.2%; inhibition at 2 µM ([1]; Plasmodium falciparum, 2µM, 24h preincubation with gametocytes, replicate R3, read-out: % inhibition female (individual replicates) R3): 28.5%; inhibition at 2 µM ([1]; Plasmodium falciparum, 2µM, 24h preincubation with gametocytes, replicate R4, read-out: % inhibition female (individual replicates) R4): 13.2%; IC50 ([1]; Plasmodium falciparum, PfDGFA, 24 h incubation with gametocytes before induction, female gamete readout, read-out: Female IC50): > 10 µM; Selectivity Ratio M ([2]; HepG2 Tox50 versus male IC50): 58.17; inhibition at 2 µM ([2]; Plasmodium falciparum, 2µM, 24h preincubation with gametocytes, average of replicates, read-out: Average inhibition male (%)): 97.3%; inhibition at 2 µM ([2]; Plasmodium falciparum, 2µM, 24h preincubation with gametocytes, replicate R1, read-out: % inhibition male (individual replicates) R1): 97.5%; inhibition at 2 µM ([2]; Plasmodium falciparum, 2µM, 24h preincubation with gametocytes, replicate R2, read-out: % inhibition male (individual replicates) R2): 95.7%; inhibition at 2 µM ([2]; Plasmodium falciparum, 2µM, 24h preincubation with gametocytes, replicate R3, read-out: % inhibition male (individual replicates) R3): 95.7%; inhibition at 2 µM ([2]; Plasmodium falciparum, 2µM, 24h preincubation with gametocytes, replicate R4, read-out: % inhibition male (individual replicates) R4): 100%; IC50 ([2]; Plasmodium falciparum, PfDGFA, 24 h incubation with gametocytes before induction, exflagellation readout, read-out: Male IC50): 1.72 µM |
| COc1cc2nc(N3CCC(CCCC4CCNCC4)CC3)nc(NCc3ccccn3)c2cc1OC.O=C(O)C(F)(F)F [TCMDC-138494] |  |  |  |  |  |  |  |  |  |  |  | Average inhibition female (%) [1, 3]: 59.5%; % inhibition female (individual replicates) R1 [1, 4]: 47.2%; % inhibition female (individual replicates) R3 [1, 5]: 73.7%; % inhibition female (individual replicates) R4 [1, 6]: 83.6%; HitlevelF [1, 7]: 2; Average inhibition male (%) [2, 3]: 68.1%; % inhibition male (individual replicates) R1 [2, 4]: 83.7%; % inhibition male (individual replicates) R3 [2, 5]: 75.6%; % inhibition male (individual replicates) R4 [2, 6]: 100.2%; HitlevelM [2, 8]: 3 |
| COc1ccc(Cn2c(Nc3cccc(C(F)(F)F)c3)nc3ccc(C(=O)NCCN4CCCC4)cc32)cc1Cl [TCMDC-138531] | 9.2 | 9.3 | -11.0 | 18.4 | 0 | -2.0 | 6.1 | 3.4 | -8.5 | 0 | 0 |  |
| c1ccc(Oc2ccc(Nc3ccnc(Nc4cccc(CNCCCN5CCOCC5)c4)n3)cc2)cc1 [TCMDC-138615] |  |  |  |  |  |  |  |  |  |  |  | Average inhibition female (%) [1, 3]: 19.0%; % inhibition female (individual replicates) R1 [1, 4]: 20.2%; % inhibition female (individual replicates) R3 [1, 5]: 10.9%; % inhibition female (individual replicates) R4 [1, 6]: 5.3%; HitlevelF [1, 7]: 0; Average inhibition male (%) [2, 3]: 70.3%; % inhibition male (individual replicates) R1 [2, 4]: 74.9%; % inhibition male (individual replicates) R3 [2, 5]: 61.1%; % inhibition male (individual replicates) R4 [2, 6]: 77.6%; HitlevelM [2, 8]: 4 |
| COc1cc2nc(N3CCC(CNC(=O)c4ccc(-c5ccc(C(F)(F)F)cc5)cc4)CC3)nc(N)c2cc1OC [TCMDC-138716] |  |  |  |  |  |  |  |  |  |  |  | Average inhibition female (%) [1, 3]: 47.4%; % inhibition female (individual replicates) R1 [1, 4]: 32.4%; % inhibition female (individual replicates) R3 [1, 5]: 31.5%; % inhibition female (individual replicates) R4 [1, 6]: 42.3%; HitlevelF [1, 7]: 1; Average inhibition male (%) [2, 3]: 66.2%; % inhibition male (individual replicates) R1 [2, 4]: 83.5%; % inhibition male (individual replicates) R3 [2, 5]: 34.3%; % inhibition male (individual replicates) R4 [2, 6]: 64.2%; HitlevelM [2, 8]: 3 |
| CC(=O)Nc1ccc(Nc2ncc([N+](=O)[O-])c(Nc3ccccc3C(N)=O)n2)cc1.Cl [TCMDC-138731] |  |  |  |  |  |  |  |  |  |  |  | % inhibition female (individual replicates) R1 [1, 16]: 2.0%; % inhibition female (individual replicates) R3 [1, 17]: 5.4%; % inhibition female (individual replicates) R4 [1, 18]: -11.2%; Average inhibition female (%) [1, 19]: -0.8%; % inhibition male (individual replicates) R1 [2, 16]: 16.1%; % inhibition male (individual replicates) R3 [2, 17]: -4.1%; % inhibition male (individual replicates) R4 [2, 18]: 46.2%; Average inhibition male (%) [2, 19]: 19.6% |
| O=C(NCCCCN1CCC(c2ccc3c(c2OCCN2CCCC2)CCCC3)CC1)c1ccc(-c2ccc(C(F)(F)F)cc2)cc1 [TCMDC-138768] | 9.4 | 18.9 | -7.9 | 3.3 | 0 | 31.7 | 23.4 | -6.7 | 63.6 | 1 | 0 |  |
| Cc1[nH]c(C)c(-c2ccc(Oc3ccc(OC(F)(F)F)cc3)cc2)c(=O)c1Br [TCMDC-138826] | 14.3 | 12.8 | 15.5 | 15.2 | 0 | -11.2 | -5.2 |  | -18.5 | 0 | 0 |  |
